Source: patent publication US20060069132A1, “Azolecarboxamide herbicides” (priority 2004, published 2006)

Experiments:
giant foxtail [1] = assay: Test A pre-/postemergence herbicide test; type: in vivo, Setaria faberi
Procedure, shortened: (§1)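 Plants are held in greenhouse about ten days after treatment, then compared with untreated controls and scored 0 (no effect) to 100 (complete control). Preemergence dosing is a directed soil spray on sown sandy loam; postemergence dosing is spray to runoff at 2–10 cm height.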

barnyardgrass = assay: Test A pre-/postemergence herbicide test; type: in vivo, Echinochloa crus-galli
Procedure, shortened: as §1

kochia = assay: Test C pre-/postemergence herbicide test; type: in vivo, Kochia scoparia
Procedure, shortened: (§2)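 Greenhouse-grown plants were evaluated visually 12 to 14 days after treatment, with 100 meaning complete control and 0 no effect. Application was preemergence, or postemergence at 2 to 18 cm.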

johnsongrass = assay: Test C pre-/postemergence herbicide test; type: in vivo, Sorghum halepense
Procedure, shortened: as §2

rice = assay: Test C flooded paddy test; type: in vivo, Oryza sativa; conditions: for Plant response rating, Rice: visual rating after 12 to 14 days
Procedure, shortened: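 Postemergence sprays applied to plants 2 to 18 cm tall (1- to 4-leaf stage); paddy species grown to 2-leaf stage under flooding. After 12 to 14 days in greenhouse, visual rating versus untreated controls on 0–100 scale (0 no effect, 100 complete control).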

giant foxtail [2] = assay: Test C pre-/postemergence herbicide test; type: in vivo, Setaria faberi
Procedure, shortened: as §2

common ragweed = assay: Test C pre-/postemergence herbicide test; type: in vivo, Ambrosia elatior; set-up: key to Plant response rating, Ragweed: 0 = no effect, 100 = complete control
Procedure, shortened: as §2

[3] = system: smallflower umbrella sedge; assay: Test C flooded paddy test; type: in vivo, Cyperus difformis; conditions: for Plant response rating, Sedge, Umbrella: visual rating after 12 to 14 days
corn = assay: Test C pre-/postemergence herbicide test; type: in vivo, Zea mays
Procedure, shortened: as §2

large crabgrass = assay: Test A pre-/postemergence herbicide test; type: in vivo, Digitaria sanguinalis
Procedure, shortened: as §1

[4] = Postemergence, 500 g ai/ha, 0 to 100 scale, 0 no effect, 100 complete control
[5] = Postemergence, 2000 g ai/ha, 0 to 100 scale, 0 no effect, 100 complete control
[6] = Preemergence, 2000 g ai/ha, visual rating, 0 to 100 scale (0 no effect, 100 complete control)
[7] = preemergence, 500 g ai/ha, visual injury, 0 to 100 scale (0 no effect, 100 complete control)
[8] = 62 g ai/ha, preemergence, scale 0 to 100
[9] = 125 g ai/ha, scale 0 (no effect) to 100 (complete control), visual, 12 to 14 days, preemergence
[10] = 250 g ai/ha, scale 0-100, preemergence
[11] = 500 g ai/ha, scale 0 to 100 (0 no effect, 100 complete control), visual, 12 to 14 days, preemergence
[12] = 125 g ai/ha, scale 0 to 100 (0 no effect, 100 complete control)
[13] = 250 g ai/ha, scale of 0 to 100, 0 is no effect, 100 is complete control
[14] = 500 g ai/ha, scale 0 to 100 (0 no effect, 100 complete control)
[15] = Postemergence, 250 g ai/ha, 0 to 100 scale, 0 no effect, 100 complete control
[16] = Postemergence, 1000 g ai/ha, 0 to 100 scale, 0 no effect, 100 complete control
[17] = Preemergence, 1000 g ai/ha, visual rating, 0 to 100 scale (0 no effect, 100 complete control)
[18] = preemergence, 250 g ai/ha, visual injury, 0 to 100 scale (0 no effect, 100 complete control)
[19] = 125 g ai/ha, scale 0-100, preemergence
[20] = 250 g ai/ha, scale 0 to 100 (0 no effect, 100 complete control), visual, 12 to 14 days, preemergence
[21] = Postemergence, 500 g ai/ha, scale 0 to 100
[22] = Postemergence, 125 g ai/ha, scale 0 to 100, 0 no effect, 100 complete control
[23] = Postemergence, 250 g ai/ha, scale 0 to 100, 0 no effect, 100 complete control
[24] = Preemergence, 500 g ai/ha, scale 0 to 100, 0 no effect, 100 complete control
[25] = postemergence, 62 g ai/ha, scale 0 to 100
[26] = 62 g ai/ha, scale 0 to 100 (0 no effect, 100 complete control)
[27] = 125 g ai/ha, scale of 0 to 100, 0 is no effect, 100 is complete control
[28] = 250 g ai/ha, scale 0 to 100 (0 no effect, 100 complete control)
[29] = postemergence, 125 g ai/ha, scale 0 to 100
[30] = Preemergence, 500 g ai/ha, visual rating, 0 to 100 scale (0 no effect, 100 complete control)
[31] = Preemergence, 2000 g ai/ha, 0 to 100 scale, 0 no effect, 100 complete control

CCNC(=O)c1ccc(F)c(NC(=O)C2CC(C(C)(C)C)=NN2CC)c1 (racemic) [Compound 269]
45: Rice plant response rating (rice; 62 g ai/ha, scale 0 to 100) | Sedge, Umbrella plant response rating ([3]; 62 g ai/ha, scale 0 to 100)
20: Plant response rating, Corn (corn; [9])
35: Foxtail, Giant plant response rating (giant foxtail [1]; [4]) | Crabgrass, Large plant response rating (large crabgrass; [4])
70: Barnyardgrass plant response rating (barnyardgrass; [4]) | Plant response rating, Kochia (kochia; [8])
95: Barnyardgrass plant response rating (barnyardgrass; [7])
55: Plant response rating, Corn (corn; [11])
85: Plant response rating, Sedge, Umbrella [3, 14]
65: Plant response rating, Foxtail, Giant (giant foxtail [1]; [5]) | Crabgrass, Large plant response rating (large crabgrass; [7])
80: Plant response rating, Barnyardgrass (barnyardgrass; [5]) | Plant response rating, Rice (rice; [14]) | Sedge, Umbrella plant response rating [3, 12] | Sedge, Umbrella plant response rating [3, 13] | Plant response rating, Crabgrass, Large (large crabgrass; [5])
90: Plant response rating, Foxtail, Giant (giant foxtail [2]; [9]) | Plant response rating, Ragweed (common ragweed; [10]) | Plant response rating, Ragweed (common ragweed; [11])
50: Rice plant response rating (rice; [12]) | Plant response rating, Foxtail, Giant (giant foxtail [2]; [8])
5: Plant response rating, Ragweed (common ragweed; [8])
40: Plant response rating, Johnsongrass (johnsongrass; [8]) | Plant response rating, Corn (corn; [10])
75: Rice plant response rating (rice; [13])
60: Plant response rating, Johnsongrass (johnsongrass; [9])
100: Foxtail, Giant plant response rating (giant foxtail [1]; [6]) | Foxtail, Giant plant response rating (giant foxtail [1]; [7]) | Barnyardgrass plant response rating (barnyardgrass; [6]) | Plant response rating, Kochia (kochia; [9]) | Plant response rating, Kochia (kochia; [10]) | Plant response rating, Kochia (kochia; [11]) | Plant response rating, Johnsongrass (johnsongrass; [10]) | Plant response rating, Johnsongrass (johnsongrass; [11]) | Plant response rating, Foxtail, Giant (giant foxtail [2]; [10]) | Plant response rating, Foxtail, Giant (giant foxtail [2]; [11]) | Crabgrass, Large plant response rating (large crabgrass; [6])

CCNC(=O)c1cccc(NC(=O)c2cc(C(C)(C)C)nn2CC(F)(F)F)c1 [Compound 31]
100: Plant response rating, Kochia (kochia; [20]) | Kochia plant response rating (kochia; [24]) | Foxtail, Giant plant response rating (giant foxtail [2]; [24])
60: Plant response rating, Ragweed (common ragweed; [20])
20: Foxtail, Giant plant response rating (giant foxtail [1]; [18]) | Plant response rating, Johnsongrass (johnsongrass; [22]) | Plant response rating, Johnsongrass (johnsongrass; [25]) | Plant response rating (0 = no effect, 100 = complete control), Foxtail, Giant (giant foxtail [2]; 62 g ai/ha, preemergence) | Plant response rating, Foxtail, Giant (giant foxtail [2]; [25]) | Plant response rating, Corn (corn; [19]) | Crabgrass, Large plant response rating (large crabgrass; [18])
40: Barnyardgrass plant response rating (barnyardgrass; [18]) | Plant response rating, Rice (rice; [28]) | Foxtail, Giant plant response rating (giant foxtail [2]; [21]) | Plant response rating, Ragweed (common ragweed; [23]) | Plant response rating, Ragweed (common ragweed; [29]) | Plant response rating, Sedge, Umbrella [3, 28] | Plant response rating, Corn (corn; [22]) | Plant response rating, Corn (corn; [23]) | Plant response rating, Corn (corn; [25]) | Plant response rating, Crabgrass, Large (large crabgrass; [16])
50: Foxtail, Giant plant response rating (giant foxtail [1]; [17]) | Plant response rating, Rice (rice; [14]) | Corn plant response rating (corn; [21])
0: Plant response rating (0 = no effect, 100 = complete control), Kochia (kochia; 62 g ai/ha, preemergence) | Plant response rating (0 = no effect, 100 = complete control), Johnsongrass (johnsongrass; 62 g ai/ha, preemergence) | Rice plant response rating (rice; [26]) | Plant response rating (0 = no effect, 100 = complete control), Ragweed (common ragweed; 62 g ai/ha, preemergence) | Sedge, Umbrella plant response rating [3, 26] | Plant response rating (0 = no effect, 100 = complete control), Corn (corn; 62 g ai/ha, preemergence)
65: Barnyardgrass plant response rating (barnyardgrass; [15])
80: Barnyardgrass plant response rating (barnyardgrass; [17]) | Plant response rating, Kochia (kochia; [19]) | Ragweed plant response rating (common ragweed; [24])
30: Plant response rating, Johnsongrass (johnsongrass; [19]) | Johnsongrass plant response rating (johnsongrass; [21]) | Plant response rating, Johnsongrass (johnsongrass; [23]) | Plant response rating, Foxtail, Giant (giant foxtail [2]; [19]) | Plant response rating, Foxtail, Giant (giant foxtail [2]; [22]) | Plant response rating, Foxtail, Giant (giant foxtail [2]; [23]) | Plant response rating, Ragweed (common ragweed; [25]) | Crabgrass, Large plant response rating (large crabgrass; [15])
10: Rice plant response rating (rice; [27])
55: Plant response rating, Sedge, Umbrella [3, 14]
45: Foxtail, Giant plant response rating (giant foxtail [1]; [15]) | Crabgrass, Large plant response rating (large crabgrass; [17])
70: Plant response rating, Foxtail, Giant (giant foxtail [1]; [16]) | Kochia plant response rating (kochia; [21]) | Plant response rating, Kochia (kochia; [22]) | Plant response rating, Kochia (kochia; [23]) | Plant response rating, Kochia (kochia; [25]) | Plant response rating, Johnsongrass (johnsongrass; [20]) | Plant response rating, Foxtail, Giant (giant foxtail [2]; [20]) | Ragweed plant response rating (common ragweed; [21])
75: Plant response rating, Barnyardgrass (barnyardgrass; [16])
35: Sedge, Umbrella plant response rating [3, 27]
90: Johnsongrass plant response rating (johnsongrass; [24])

C=Cn1nc(C(C)(C)C)cc1C(=O)Nc1cccc(C(=O)N(CC)CC)c1 [Compound 34]
90: Plant response rating (0 = no effect, 100 = complete control), Kochia (kochia; 62 g ai/ha, preemergence) | Plant response rating, Kochia (kochia; [19]) | Kochia plant response rating (kochia; [21]) | Plant response rating, Kochia (kochia; [22]) | Plant response rating, Kochia (kochia; [23]) | Plant response rating, Foxtail, Giant (giant foxtail [2]; [20]) | Plant response rating, Sedge, Umbrella [3, 14]
30: Plant response rating, Foxtail, Giant (giant foxtail [1]; [4]) | Plant response rating, Ragweed (common ragweed; [29]) | Plant response rating, Corn (corn; [22]) | Plant response rating, Crabgrass, Large (large crabgrass; [4])
45: Plant response rating, Barnyardgrass (barnyardgrass; [4])
60: Crabgrass, Large plant response rating (large crabgrass; [30])
70: Plant response rating, Johnsongrass (johnsongrass; [22]) | Plant response rating, Johnsongrass (johnsongrass; [23]) | Plant response rating, Johnsongrass (johnsongrass; [25]) | Plant response rating, Foxtail, Giant (giant foxtail [2]; [19]) | Corn plant response rating (corn; [21])
80: Plant response rating, Barnyardgrass (barnyardgrass; [5]) | Barnyardgrass plant response rating (barnyardgrass; [31]) | Plant response rating, Kochia (kochia; [25]) | Plant response rating, Johnsongrass (johnsongrass; [19]) | Johnsongrass plant response rating (johnsongrass; [21]) | Sedge, Umbrella plant response rating [3, 27] | Plant response rating, Sedge, Umbrella [3, 28]
10: Plant response rating (0 = no effect, 100 = complete control), Foxtail, Giant (giant foxtail [2]; 62 g ai/ha, preemergence)
100: Kochia plant response rating (kochia; [24]) | Plant response rating, Johnsongrass (johnsongrass; [20]) | Johnsongrass plant response rating (johnsongrass; [24]) | Foxtail, Giant plant response rating (giant foxtail [2]; [24]) | Crabgrass, Large plant response rating (large crabgrass; [31])
40: Plant response rating, Foxtail, Giant (giant foxtail [1]; [5]) | Foxtail, Giant plant response rating (giant foxtail [1]; [30]) | Foxtail, Giant plant response rating (giant foxtail [2]; [21]) | Plant response rating, Foxtail, Giant (giant foxtail [2]; [22]) | Plant response rating, Foxtail, Giant (giant foxtail [2]; [23]) | Ragweed plant response rating (common ragweed; [21]) | Plant response rating, Ragweed (common ragweed; [23]) | Ragweed plant response rating (common ragweed; [24])
85: Foxtail, Giant plant response rating (giant foxtail [1]; [31])
0: Rice plant response rating (rice; [26]) | Rice plant response rating (rice; [27]) | Plant response rating (0 = no effect, 100 = complete control), Ragweed (common ragweed; 62 g ai/ha, preemergence) | Plant response rating, Ragweed (common ragweed; [20]) | Plant response rating (0 = no effect, 100 = complete control), Corn (corn; 62 g ai/ha, preemergence) | Plant response rating, Corn (corn; [19]) | Plant response rating, Corn (corn; [20]) | Corn plant response rating (corn; [24])
50: Plant response rating (0 = no effect, 100 = complete control), Johnsongrass (johnsongrass; 62 g ai/ha, preemergence) | Plant response rating, Rice (rice; [28]) | Sedge, Umbrella plant response rating [3, 26] | Plant response rating, Corn (corn; [23]) | Plant response rating, Crabgrass, Large (large crabgrass; [5])
55: Barnyardgrass plant response rating (barnyardgrass; [30]) | Plant response rating, Rice (rice; [14])
20: Plant response rating, Foxtail, Giant (giant foxtail [2]; [25]) | Plant response rating, Ragweed (common ragweed; [25]) | Plant response rating, Corn (corn; [25])
